Test results: patent US20040121965A1, “Method of treating resistant tumors” (Wyeth Holdings Corporation, priority 2002, published 2004)

Columns and labels:
KB-8-5 (MDR1+) = assay: Cell survival assay (SRB), KB-8-5 (MDR1+); settings: for IC50: Homo sapiens, MDR1, read-out: In vitro IC50 (nM) KB85
KB-V1 (MDR1++) = assay: Cell survival assay (SRB), KB-V1 (MDR1++); settings: for IC50: Homo sapiens, read-out: In vitro IC50 (nM) KBV1
KB-3-1 = assay: Cell survival assay (SRB), KB-3-1; type: cell-based, human; settings: Homo sapiens, KB 3-1, KB-3-1 cells (paclitaxel-sensitive parent); read-out: In vitro IC50 (nM) KB-3-1
Method in brief: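 IC50 for 50% growth inhibition after 3-day compound exposure, tested in duplicate. SRB protein staining of TCA-fixed cells (10% TCA, 1 hr, 4 °C), solubilised in Tris base and read by absorbance, was used as the survival read-out, with KB-3-1 grown in 20% FCS.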

SMILES | Ratio KB85/KB (KB-8-5 (MDR1+)) | IC50 (KB-8-5 (MDR1+)) [nM] | Ratio KBV1/KB (KB-V1 (MDR1++)) | IC50 (KB-V1 (MDR1++)) [nM] | IC50 (KB-3-1) [nM]
CN[C@@H](C(=O)N[C@H](C(=O)N(C)[C@H](/C=C(\C)C(=O)O)C(C)C)C(C)(C)C)C(C)(C)c1ccccc1C [Example 36, N,β,β,2-Tetramethyl-D-phenylalanyl-N^1-[(1S,2E)-3-carboxy-1-isopropyl-2-butenyl]-N^1,3-dimethyl-L-valinamide] | 2.3 | 13.8 | 83.5 | 501 | 6
C=CC(C)(C)[C@H](NC)C(=O)N[C@H](C(=O)N(C)[C@H](/C=C(\C)C(=O)O)C(C)C)C(C)(C)C [Example 121, (2E, 4S)-4-[((2S)-2-{[3,3-dimethyl-2-(methylamino)-4-pentenoyl]amino}-3,3-dimethylbutanoyl)(methyl)amino]-2,5-dimethyl-2-hexenoic Acid] | 1.4 | 186 | 22.0 | ≥ 3000 | 136
CCOC(=O)/C(C)=C/[C@H](C(C)C)N(C)C(=O)/C(C)=C/[C@H](C(C)C)N(C)C(=O)[C@@H](NC(=O)[C@@H](NC)C(C)(C)c1ccccc1)C(C)(C)C [Example 113, N,β,β-trimethyl-L-phenylalanyl-N^1-{(1S,2E)-4-[[(1S,2E)-4-ethoxy-1-isopropyl-3-methyl-4-oxobut-2-enyl](methyl)amino]-1-isopropyl-3-methyl-4-oxobut-2-enyl}-N^1,3-dimethyl-L-valinamide] | 1.9 | 34 | 32.3 | 582 | 18
CN[C@@H](C(=O)N[C@H](C(=O)N(C)[C@H](/C=C(\C)C(=O)O)C(C)C)C(C)(C)C)C(C)(C)c1cccc(C)c1 [Example 9, N,β,β,3-Tetramethyl-D-phenylalanyl-N^1-[(1S,2E)-3-carboxy-1-isopropyl-2-butenyl]-N^1,3-dimethyl-L-valinamide] | 2.5 | 19.9 | 56.5 | 447 | 7.9
CN[C@@H](C(=O)N[C@H](C(=O)N(C)[C@H](/C=C(\C)C(=O)O)C(C)C)C(C)(C)C)C(C)(C)c1cc(C)cc(C)c1 [Example 18, N,β,β,3,5-Pentamethyl-D-phenylalanyl-N^1-[(1S,2E)-3-carboxy-1-isopropyl-2-butenyl]-N^1,3-dimethyl-L-valinamide] | 2.4 | 17.4 | 79.9 | 575 | 7.2
CN[C@H](C(=O)N[C@H](C(=O)N(C)[C@H](/C=C(\C)C(=O)O)C(C)C)[C@H](C)O)C(C)(C)c1ccccc1 [Example 86, N,β,β-trimethyl-L-phenylalanyl-N^1-[(1S,2E)-3-carboxy-1-isopropyl-2-butenyl]-N^1-methyl-L-allothreoninamide] | 2.2 | 669 | 9.7 | ≥ 3000 | 311
CN[C@H](C(=O)N[C@H](C(=O)N(C)[C@H](/C=C(\C)C(N)=O)C(C)C)C(C)(C)C)C(C)(C)c1ccccc1 [Example 107, (E,4S)-4-[((2S)-3,3-dimethyl-2-{[(2S)-3-methyl-2-(methylamino)-3-phenylbutanoyI]amino}butanoyl)(methyl)amino]-2,5-dimethyl-2-hexenamide] | 2.5 | 162 | 46.4 | ≥ 3000 | 64.7
CN[C@H](C(=O)N[C@H](C(=O)N(C)[C@H](/C=C(\C)C(=O)O)C(C)C)C(C)(C)C)C(C)(C)C [Example 140, N,3-dimethyl-L-valyl-N^1-[(1S,2E)-3-carboxy-1-isopropyl-2-butenyl]-N^1,3-dimethyl-L-valinamide] | 1.6 | 181 | 26.4 | ≥ 3000 | 114
CNC(C(=O)N[C@H](C(=O)N(C)[C@@H](/C=C(\C)C(=O)O)C(C)C)C(C)(C)C)C1(c2ccccc2)CCCCC1 (stereo partly drawn) [Example 73, (2E,4R)-2,5-dimethyl4-(methyl{3-methyl-N-[(methylamino)(1-phenylcyclohexyl)acetyl]-L-valyl}amino)-2-hexenoic Acid] | 1.8 | 363 | 14.7 | ≥ 3000 | 204
C/C(=C\[C@H](C(C)C)N(C)C(=O)[C@@H](NC(=O)[C@@H](NCCO)C(C)(C)c1ccccc1)C(C)(C)C)C(=O)O [Example 153, N-(2-hydroxyethyl)-β,β-dimethyl-L-phenylalanyl-N^1-[(1S,2E)-3-carboxy-1-isopropylbut-2-enyl]-N^1,3-dimethyl-L-valinamide] | 3.4 | 616 | 16.4 | > 3000 | 183
CCC(CC)(c1ccccc1)[C@H](NC)C(=O)N[C@H](C(=O)N(C)[C@H](/C=C(\C)C(=O)O)C(C)C)C(C)(C)C [Example 125, β,β-diethyl-N-methyl-L-phenylalanyl-N^1-[(1S,2E)-3-carboxy-1-isopropylbut-2-enyl]-N^1,3-dimethyl-L-valinamide] | 2.1 | 18 | 56.4 | 479 | 8.5
CNC(C(=O)NC(C(=O)N(C)C(C=C(C)C(=O)O)CC(C)C)C(C)(C)C)C(C)(C)c1ccccc1.O=C(O)C(F)(F)F (stereo not drawn) [Example 104, 4-{[3,3-Dimethyl-2-(3-methyl-2-methylamino-3-phenyl-butyrylamino)-butyryl]-methyl-amino}-2,6-dimethyl-hept-2-enoic Acid Trifluoroacetic Acid] | 1.8 | 50.5 | 79.3 | 2200 | 27.7
CN[C@H](C(=O)N[C@H](C(=O)N(C)[C@H](/C=C(\C)C(=O)O)Cc1ccccc1)C(C)(C)C)C(C)(C)c1ccccc1 [Example 136, (E,4S)-4-[((2S)-3,3-dimethyl-2-{[(2S)-3-methyl-2-(methylamino)-3-phenylbutanoyl]amino}butanoyl)(methyl)amino]-2-methyl-5-phenyl-2-pentenoic Acid] | 2.8 | 1320 | 6.3 | ≥ 3000 | 479
CN[C@H](C(=O)N[C@H](C(=O)N(C)[C@H](/C=C(\C)C(=O)O)C(C)C)C(C)(C)C)C(C)(C)c1ccccc1C [Example 35, N,β,β,2-Tetramethyl-L-phenylalanyl-N^1-[(1S,2E)-3-carboxy-1-isopropyl-2-butenyl]-N^1,3-dimethyl-L-valinamide] | 2.0 | 1.8 | 61.6 | 56.2 | 0.912
CCOC(=O)/C(C)=C/[C@H](C(C)C)N(C)C(=O)[C@@H](NC(=O)C(NC)C(C)(C)c1csc2ccccc12)C(C)(C)C (stereo partly drawn) [Example 25, 3-(1-Benzothien-3-yl)-N-methylvalyl-N^1-[(l S,2E)-4-ethoxy-1-isopropyl-3-methyl4-oxo-2-butenyl]-N^1,3-dimethyl-L-valinamide] | 3.2 | 1510 | 6.2 | 2950 | 479
